“And” between values parts separate entries of the source, which are not always exact repeats. Equal values may be shown once. Read-outs that look alike come from different tables or passages of the source.
Assays:
(α4H116L)3(β2)2 nAChR = biological target: T1, (α4H116L)3(β2)2 nAChR (Homo sapiens, UniProt P17787+P43681, H142L); test: Two-electrode voltage-clamp, oocytes expressing (α4H116L)3(β2)2 nAChR; format: cell-based
T1 construct: expressed in transfected cells; host or cells: Xenopus laevis oocytes injected with cRNA, 8:1 α4:β2
Experimental: Oocytes-positive female Xenopus laevis were purchased from NASCO, and all procedures were performed according to an animal use protocol approved by the Institutional Animals Care and Use Committee of The University of Texas Health Science Center at Tyler. Ovarian lobules were surgically harvested, treated with collagenase type 2, and Stage V and VI oocytes were visually selected and maintained at 18 °C in modified ND96-gentamicin buffer (96 mM NaCl, 2 mM KCl, 1.8 mM CaCl2, 1 mM MgCl2, 5 mM Hepes, and 50 μg/ml gentamicin, pH 7.6).
pSP64 Poly(A) plasmids with cDNA encoding for human α4 or β2 nAChR subunit were used to prepare cRNA transcripts suitable for oocyte expression. The plasmids were linearized with AseI (hα4) and PvuII (hβ2), then cRNA transcripts were prepared in vitro using mMESSAGE mMACHINE high yield-capped RNA transcription kits (Ambion, Thermo Fisher Scientific), purified on NucAway Spin column (Invitrogen, Thermo Fisher Scientific), and stored at −80 °C until used. Point mutations within the plasmid encoding the α4 nAChR subunit were introduced using QuikChange II Site-Directed Mutagenesis Kit (Agilent Technologies), as described previously ([28]). To generate amino acid substitutions (K64T, E66I, H116V, H116L, and H116A), two custom-designed complementary oligos containing the desired mutation were used (Integrated DNA Technologies). The forward primers were as the following with the codon for mutated amino acids are underlined and nucleotide(s) changes are bolded and italicized:
The oocytes were injected with 10 to 50 ng of a cRNA mix containing α4 (WT or mutant) and β2 RNAs at ratios of 8:1(α4:β) or 1:8 (α4:β2) to bias expression toward (α4)3(β2)2 or (α4)2(β2)3 nAChRs, respectively. The injection of oocytes with RNAs mixture containing four folds or higher α4 RNA than β2 RNA have been established to express receptor population that is made up of three α4 and two β2 subunits ([9], [12], [28], [43], [44], [45]).
24 to 72 h after cRNA injection, Xenopus oocytes were placed in a custom-made recording chamber that is connected to an eight-channel automated perfusion system (Warner Instruments) and perfused with recording buffer (100 mM NaCl, 2 mM KCl, 1 mM CaCl2, 0.8 mM MgCl2, 1 mM EGTA, and 10 mM Hepes, pH 7.5). Unless otherwise specified in figure legends, each recording run included several drug applications (10 s of an agonist with or without CMPI or NS9283) separated by 3 to 4 min buffer wash intervals. Between recording runs, the oocytes were washed with recording buffer for at last 5 min. […] The currents were digitized using Digidata 1550A (Axon Instruments, Molecular Devices), and the peak currents were quantified using pCLAMP 10 (Axon Instruments), then normalized and analyzed using Excel 2010 (Microsoft) and SigmaPlot 11.0 (Systat Software). […]

(α4)3(β2)2 nAChR [1] = biological target: T2, (α4)3(β2)2 nAChR (Homo sapiens, UniProt P17787+P43681); test: Mechanistic (Monod-Wyman-Changeux two-state model) analysis of current responses, WT (α4)3(β2)2 nAChR; format: cell-based
T2 construct: expressed in transfected cells; host or cells: Xenopus laevis oocytes injected with cRNA, 8:1 α4:β2
From the text: To gain mechanistic insight into receptor activation in the presence of CMPI, we analyzed the currents in the framework of a cyclic two-state (resting and active) allosteric activation model ([31], [32], [33]). In this model, channel opening is mediated by stabilization of the active state by an agonist that, by definition, has higher affinity to the active than resting state.
We commenced by converting the raw amplitudes of current responses to units of probability of being in the active state (PA units).
Further analysis of electrophysiological data was conducted in the framework of the two-state concerted transition model, adapted from the MWC cyclic model originally used to describe enzyme function ([31], [32], [33]). The raw peak amplitudes of current responses were converted to units of probability of being in the active state (PA).
The numbers of α4:β2 and α4:α4 binding sites (Nα4:β2 and Nα4:α4) were constrained to 2 and 1, respectively.
The concentration-response curve for TC-2559 was fitted to the following equation:(3) PA=1/1+L[1+[TC-2559]/KR,TC-2559,α4:β2/1+[TC-2559]/(KR,TC-2559,α4:β2cTC-2559,α4:β2)]^Nα4:β2
The concentration-response data were analyzed using Equation 3, with the value of L modified to reflect receptor activation by TC-2559, and the affinity and efficacy terms in the equation reflecting the values for CMPI. The number of binding sites for CMPI in Equation 3 was constrained to 1.
Curve fitting was done using Origin 2020 (OriginLab Corp). The results are reported as best-fit parameter ±SD of the fit. All data are included in the analysis.

(α4)3(β2)2 nAChR [2] = biological target: T2, (α4)3(β2)2 nAChR; settings: cited from earlier work

T2 sequence (P43681 27-627): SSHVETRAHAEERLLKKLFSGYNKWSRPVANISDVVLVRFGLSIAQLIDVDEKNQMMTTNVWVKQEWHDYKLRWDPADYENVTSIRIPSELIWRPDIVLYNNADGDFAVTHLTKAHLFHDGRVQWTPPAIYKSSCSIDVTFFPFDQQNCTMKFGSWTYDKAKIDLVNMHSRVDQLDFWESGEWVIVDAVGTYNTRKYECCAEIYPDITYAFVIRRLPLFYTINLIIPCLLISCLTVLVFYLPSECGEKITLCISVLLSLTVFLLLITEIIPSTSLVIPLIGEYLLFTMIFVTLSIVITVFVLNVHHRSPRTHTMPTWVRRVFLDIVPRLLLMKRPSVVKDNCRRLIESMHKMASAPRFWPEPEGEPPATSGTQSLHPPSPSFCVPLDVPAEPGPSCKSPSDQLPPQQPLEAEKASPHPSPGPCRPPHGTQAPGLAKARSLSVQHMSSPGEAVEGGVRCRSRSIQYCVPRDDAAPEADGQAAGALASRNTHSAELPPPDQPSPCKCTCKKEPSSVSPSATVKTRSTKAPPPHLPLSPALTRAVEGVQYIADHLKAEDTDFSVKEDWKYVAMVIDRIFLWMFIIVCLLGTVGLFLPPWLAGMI
T2 sequence (P17787 26-502): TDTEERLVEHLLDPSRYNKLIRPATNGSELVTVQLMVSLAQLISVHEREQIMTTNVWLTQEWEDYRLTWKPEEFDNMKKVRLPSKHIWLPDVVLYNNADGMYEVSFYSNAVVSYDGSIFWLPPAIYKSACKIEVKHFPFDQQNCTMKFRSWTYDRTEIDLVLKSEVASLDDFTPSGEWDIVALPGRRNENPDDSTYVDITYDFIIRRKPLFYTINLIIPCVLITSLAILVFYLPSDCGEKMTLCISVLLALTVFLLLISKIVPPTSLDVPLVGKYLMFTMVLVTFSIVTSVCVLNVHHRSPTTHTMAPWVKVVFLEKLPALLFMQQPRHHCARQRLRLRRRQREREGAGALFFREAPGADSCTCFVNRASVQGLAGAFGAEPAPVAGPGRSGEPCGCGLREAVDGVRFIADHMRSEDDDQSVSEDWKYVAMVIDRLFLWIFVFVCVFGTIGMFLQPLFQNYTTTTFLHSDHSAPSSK
T1 sequence (P43681 27-627 H142L): as the sequence (P43681 27-627) above, with H116L counted along it
T1 sequence (P17787 26-502): as the sequence (P17787 26-502) above

## Cc1c(-c2cc(-c3ccccc3Cl)no2)cnn1C1CCNCC1 [CMPI, 3-(2-chlorophenyl)-5-(5-methyl-1-(piperidin-4-yl)-1H-pyrrazol-4-yl)isoxazole]
(α4H116L)3(β2)2 nAChR; ACh (1 mM)
  potentiation fold (Ave ± SD), agonist + 1 μM modulator / agonist alone: 0.82 ± 0.05
(α4H116L)3(β2)2 nAChR; TC 2559 (30 μM)
  potentiation fold (Ave ± SD), agonist + 1 μM modulator / agonist alone: 4.58 ± 0.24
(α4)3(β2)2 nAChR [1]; CMPI at the α4:α4 interface, from 1 μM TC-2559 background dataset
  free energy change toward stabilization of the active state: -1.42 kcal/mol
(α4)3(β2)2 nAChR [1]; CMPI at the α4:α4 site, from mean parameters
  ΔGgating: -1.35 kcal/mol
(α4)3(β2)2 nAChR [1]; background of 1 μM TC-2559
  cCMPI,α4:α4: 0.090 ± 0.004
(α4)3(β2)2 nAChR [1]; background of 1 μM TC-2559, 0.01 to 3 μM CMPI, read-out: KR,CMPI,α4:α4
  Kd: 170 ± 30 nM
(α4)3(β2)2 nAChR [1]; background of 1 μM cytisine
  cCMPI,α4:α4: 0.074 ± 0.009
(α4)3(β2)2 nAChR [1]; background of 1 μM cytisine, read-out: KR,CMPI,α4:α4
  Kd: 430 ± 170 nM
(α4)3(β2)2 nAChR [1]; background of 1 μM nicotine
  cCMPI,α4:α4: 0.065 ± 0.007
(α4)3(β2)2 nAChR [1]; background of 1 μM nicotine, read-out: KR,CMPI,α4:α4
  Kd: 400 ± 100 nM
(α4)3(β2)2 nAChR [1]; background of 10 μM ACh
  cCMPI,α4:α4: 0.145 ± 0.008
(α4)3(β2)2 nAChR [1]; background of 10 μM ACh, read-out: KR,CMPI,α4:α4
  Kd: 290 ± 60 nM
(α4)3(β2)2 nAChR [1]; background of 10 μM TC-2559
  cCMPI,α4:α4: 0.129 ± 0.009
(α4)3(β2)2 nAChR [1]; background of 10 μM TC-2559, read-out: KR,CMPI,α4:α4
  Kd: 90 ± 20 nM
(α4)3(β2)2 nAChR [1]; five approaches, read-out: KR,CMPI,α4:α4, range of estimates
  Kd: 90 to 430 nM
(α4)3(β2)2 nAChR [1]; mean of the five approaches
  mean cCMPI,α4:α4: 0.101 ± 0.035 and 0.101
(α4)3(β2)2 nAChR [1]; mean of the five approaches, read-out: mean KR,CMPI,α4:α4
  Kd: 280 ± 150 nM
(α4)3(β2)2 nAChR [2]; CMPI at 1 μM
  left-shift of the ACh concentration-response curve: ~100 fold
(α4)3(β2)2 nAChR [2]
  direct activation of the α4β2 receptor: very weak direct activator
(α4)3(β2)2 nAChR [2]; maximal potentiation, 10 μM ACh
  current responses to EC10 (10 μM) ACh with coapplied CMPI, % of control: 386 ± 15%
(α4)3(β2)2 nAChR [2]; potentiation of 10 μM ACh response
  EC50: 180 ± 30 nM
